Tested on: CD4 cells
Test: Cylex Immune Cell Function Assay (ImmuKnow): PHA-stimulated intracellular ATP in CD4 cells from whole blood of treated transplant patient
Assay type: cell-based, human
Method: Whole blood (100 μl of a 1:4 dilution) was tested in quadruplicate with or without phytohemagglutinin (PHA) (2.5 μg/mL) overnight (15-18 hours in a CO2 incubator at 37° C.). Anti-human CD4 monoclonal antibody coated magnetic particles (Dynal Biotech A.S.A., Oslo, Norway) were added to immunoselect CD4 cells from both the stimulated and non-stimulated wells. After washing the CD4 cells selected on a strong magnet (Cylex™ Cat. 1050) a lysing reagent was added to release intracellular ATP. A luciferin/luciferase mixture was then added to the cell lysate. Within 30 minutes after addition of enzyme, the bioluminescent product was measured in a luminometer (PHL Mediators, Austria or Berthold, Maryville, Tenn., or Turner Designs, Sunnyvale, Calif.) (See FIG. 1). The amount of light emitted (emission maximum 562 nm) was compared to a standard curve generated with ATP calibrators (0, 1, 10, 100, 1000 ng/mL). The concentration of ATP (ng/mL) in each sample was then calculated from the calibration curve using an Excel-based program provided by Cylex™.
(§1) To perform the assay, 200 μl of sodium heparin anticoagulated whole blood was diluted, aliquoted into wells of a 96-well microtiter plate and stimulated overnight with PHA. CD4+ cells were then selected using antibody-coated magnetic particles, washed and lysed to release intracellular ATP. The intensity of the patient's immune response was quantified by measuring the amount of intracellular ATP produced in response to stimulation.
as §1, with “Cylex™ Immune Cell Function Assay,” for “assay,”, “stimulation. Acute rejection was diagnosed by histopathologic studies of random and endoscopically guided multiple mucosal biopsies. […]” for “stimulation.”

| Compound | change of immune response (ATP) (Case Study 2, Solumedrol re-initiated after week 43, read at week 44) | immune response (ATP) (Case Study 2, multivisceral transplant recipient with acute rejection, week 39, after initial infusion of OKT3/FK and Solumedrol) | immune response (ATP) (Case Study 2, after additional three-day course of OKT3) |
| --- | --- | --- | --- |
| C[C@H]1C[C@@H]2[C@H]([C@@H](O)C[C@@]3(C)[C@H]2CC[C@]3(O)C(=O)COC(=O)CCC(=O)[O-])[C@@]2(C)C=CC(=O)C=C12.[Na+] [Solumedrol, methylprednisolone] | dropped significantly |  |  |
| OKT3: monoclonal antibody OKT3 (anti-CD3), antilymphocyte drug |  | 954 ng/mL | 582 ng/mL |
